Results as given in patent US20070207093A1, “Hydrazone derivatives and uses thereof” (Linquagen Corp., priority 2005, published 2007).

Assays:
Type in all cases: cell-based
[1] = target: T1, human TRPM5 ion channel (Homo sapiens, UniProt Q9NZQ8); assay: TRPM5 FLIPR membrane potential screening assay (ATP stimulation); details: 10 μM compound; HEK293 cells stably expressing human TRPM5; 3 μM ATP stimulation; versus negative control wells; read-out: TRPM5 Activity (percent inhibition)
T1 construct: expressed in transfected cells
T1 sequence (Q9NZQ8 1-1165): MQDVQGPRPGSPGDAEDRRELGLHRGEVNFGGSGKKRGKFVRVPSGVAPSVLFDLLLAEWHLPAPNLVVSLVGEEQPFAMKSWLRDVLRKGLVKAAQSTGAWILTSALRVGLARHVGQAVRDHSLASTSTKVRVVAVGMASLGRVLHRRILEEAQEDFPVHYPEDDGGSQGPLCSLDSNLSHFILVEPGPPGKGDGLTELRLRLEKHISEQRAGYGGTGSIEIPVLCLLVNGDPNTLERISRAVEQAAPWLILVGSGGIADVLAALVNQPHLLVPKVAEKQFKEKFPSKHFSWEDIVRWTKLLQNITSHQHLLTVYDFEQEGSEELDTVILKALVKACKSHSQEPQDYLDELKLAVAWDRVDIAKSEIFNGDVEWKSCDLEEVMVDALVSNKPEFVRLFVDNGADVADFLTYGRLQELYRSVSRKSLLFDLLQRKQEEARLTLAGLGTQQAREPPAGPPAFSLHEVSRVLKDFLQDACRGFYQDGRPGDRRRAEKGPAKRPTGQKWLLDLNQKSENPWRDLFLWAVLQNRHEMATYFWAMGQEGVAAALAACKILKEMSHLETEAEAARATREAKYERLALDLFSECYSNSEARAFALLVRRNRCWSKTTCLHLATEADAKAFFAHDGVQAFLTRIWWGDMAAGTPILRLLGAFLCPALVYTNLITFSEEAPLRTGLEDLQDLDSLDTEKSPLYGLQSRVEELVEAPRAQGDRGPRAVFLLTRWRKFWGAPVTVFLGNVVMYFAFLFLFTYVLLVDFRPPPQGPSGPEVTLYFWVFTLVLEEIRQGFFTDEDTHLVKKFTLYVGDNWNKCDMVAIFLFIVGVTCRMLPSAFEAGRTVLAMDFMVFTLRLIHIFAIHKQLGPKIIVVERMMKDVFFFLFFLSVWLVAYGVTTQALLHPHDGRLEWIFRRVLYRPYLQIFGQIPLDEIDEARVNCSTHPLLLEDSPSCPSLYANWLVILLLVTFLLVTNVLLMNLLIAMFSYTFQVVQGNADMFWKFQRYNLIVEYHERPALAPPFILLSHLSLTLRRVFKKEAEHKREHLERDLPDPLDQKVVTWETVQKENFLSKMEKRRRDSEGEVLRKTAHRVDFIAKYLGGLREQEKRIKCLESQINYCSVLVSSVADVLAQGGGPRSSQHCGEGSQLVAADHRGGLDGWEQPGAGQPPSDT
Method: The activity of human TRPM5 ion channel was measured in live cells on a fluorescent imaging plate reader (FLIPR). The basis of the assay (shown in FIG. 1) is the calcium-dependent activation of the ion channel which occurs via by activation of a G-protein coupled receptor (GPCR). GPCR activation by an appropriate agonist causes a transient increase in […] Ca^2+ ion concentration which in turn causes the ion channel to open, letting in Na^+ ions. This influx causes a change in the membrane potential of the cell which can be monitored as a change in the fluorescent signal from voltage-dependent (membrane potential) fluorescent dyes.
For the screening assay, the human TRPM5 gene was cloned, put into HEK293 cells, and a stable, high expression clone was used for screening. Cells were grown in standard media at 37° C. The day before screening, the cells were removed from flasks and added to 384 well clear bottom plates (8K cells in 20 μL/well). On the assay day, 20 μL of membrane potential dye (Part No. R8123, Molecular Devices Corp.) was added to the cells and dye was allowed to be taken up, i.e., load, into the cells for 1 hr at 37° C. […] The assay was started by addition of 10 μL of solution from the compound plate into the cell plate. During this process, continuous fluorescent recordings were made simultaneously for all wells. After addition of the compound solution, the tips were automatically washed and a stimulation solution of 3 μM ATP (an agonist for an endogenous purinurgic GPCR, was added to all wells of the cell plate. The height of the response was calculated and percent inhibition values, versus negative control wells, was calculated for the test samples.
(§1) Unless otherwise indicated, the data in the table below were determined using the three assays described above, providing percent inhibition data at 10 μM.

[2] = target: T2, human TRPM5 (Homo sapiens, UniProt Q9NZQ8); assay: Whole-cell electrophysiology of TRPM5 current; details: HEK293; HEK cells stably transfected with human TRPM5, pre-treated with 10 μM; current activated by intracellular calcium dialysis (170 nM free calcium); FIG. 2B
T2 construct: expressed in transfected cells; host or cells: HEK cells, stably transfected
T2 sequence (Q9NZQ8 1-1165): T1 sequence (Q9NZQ8 1-1165)
Method: Standard whole-cell recordings were obtained from HEK cells stably transfected with human TRPM5. Internal solution contained 135 mM CsGlutamate, 10 mM HEPES, 2 mM MgATP, 5 mM CaCl2 and 10 mM EGTA. External solution was HBSS (Gibco) buffered with 20 mM HEPES to pH 7.2. Currents were recorded with Multiclamp 700B amplifier using PClamp software; filered at 1 kHz, sampled at 5 kHz. Holding potential was −80 mV. TRPM5 current was activated by intracellular calcium dialysis (170 nM free calcium) and sampled with 200 ms ramps from −80 to 80 mV at 1 Hz. Current amplitudes were measured at −80 and 80 mV potted versus time.

[3] = test system: membrane potential response (non-specific ion channel block); assay: KCl counterscreen (membrane potential dye, 10 mM KCl stimulation); details: Homo sapiens; 10 μM compound; same HEK293 TRPM5 cells; 10 mM KCl instead of ATP; read-out: KC1 Counterscreen (percent inhibition)
Method: (§2) Two counterscreen assays were run on separate cell plates utilizing the same cells as described above. In the calcium counterscreen, the cells were loaded with a calcium sensitive dye (Calcium3 Dye, Part no. 8090, Molecular Devices Corp.) and stimulated by ATP to check for compounds that block the GPCR-mediated calcium activation step. In the KCl counterscreen, cells are stimulated with 10 mM KCl instead of ATP to check for compounds that inhibit the membrane potential response by virtue of being non-specific ion channel blockers.
as §1

[4] = test system: GPCR-mediated calcium activation step; assay: Calcium counterscreen (calcium sensitive dye, ATP stimulation); details: Homo sapiens, 10 μM compound, same HEK293 TRPM5 cells, Calcium3 dye, read-out: Calcium Counterscreen (percent inhibition)
Method: as §2, §1

inhibition at 10 µM [1]: 97%
inhibition at 10 µM [2]: > 90%
Compound: COc1ccc(/C=N/NC(=O)Cc2cccc3ccccc23)cc1OC [Example 3, (E)-N′-(3,4-Dimethoxybenzylidene)-2-(naphthalene-1-yl)acetohydrazide]
inhibition at 10 µM [3]: 6%
inhibition at 10 µM [4]: 2%
